Data as given in patent publication US6762181B1, “Aminomethylpyrrolidine derivatives having aromatic substituents” (Daiichi Pharmaceutical Co., Ltd., priority 1999, dated 2004).
≈ marks a conversion by molar mass, not a printed value. Like-named read-outs stand apart in the source and are kept apart here.

Key:
Test in all cases: Antibacterial activity (MIC), Japan Society of Chemotherapy standard method
Format in all cases: cell-based
Ps. aeruginosa 32121 = system: Ps. aeruginosa 32121
Protocol: (§1) Antibacterial activities of the compounds of the invention were measured in accordance with the standard method specified by the Japan Society of Chemotherapy, with the results shown in the following table as MIC values (μg/ml). In this connection, MIC values of levofloxacin (LVFX), ciprofloxacin (CPFX) and 5-amino-7-[3-(R)-[1-(S)-aminoethyl]pyrrolidin-1-yl]-6-fluoro-1-[2-(S)-fluoro-1-(R)-cyclopropyl]-8-methyl-1,4-dihydro-4-oxoquinoline-3-carboxylic acid (control drug 1) described in WO 9623782 are also shown for the sake of comparison with the MIC values of the compounds of the invention.

S. epidermidis 56500 = system: S. epidermidis 56500
Protocol: as §1

Str. pneumoniae J24 = system: Str. pneumoniae J24
Protocol: as §1

Pr. Vulgaris O8601 = system: Pr. Vulgaris O8601
Protocol: as §1

Ser. marcescens 10100 = system: Ser. marcescens 10100
Protocol: as §1

S. aureus FDA 209P = system: S. aureus FDA 209P
Protocol: as §1

Str. pyrogenes G-36 = system: Str. pyrogenes G-36
Protocol: as §1

E. faecalis ATCC 19433 = system: E. faecalis ATCC 19433
Protocol: as §1

S. flexneri 2A 5503 = system: S. flexneri 2A 5503
Protocol: as §1

S. aureus 870307 = system: S. aureus 870307
Protocol: as §1

E. coli NIHJ = system: E. coli NIHJ
Protocol: as §1

X. maltophilia IID 1275 = system: X. maltophilia IID 1275
Protocol: as §1

K. pneumoniae TYPE 1 = system: K. pneumoniae TYPE 1
Protocol: as §1

Ps. aeruginosa 32104 = system: Ps. aeruginosa 32104
Protocol: as §1

[1] = Pseudomonas aeruginosa, 32121, Ps. aeruginosa 32121, read-out: MIC
[2] = Staphylococcus epidermidis, read-out: MIC
[3] = Streptococcus pneumoniae, J24, Str. pneumoniae J24, read-out: MIC
[4] = Serratia marcescens, 10100, Ser. marcescens 10100, read-out: MIC
[5] = Staphylococcus aureus, FDA209P, read-out: MIC
[6] = Stenotrophomonas maltophilia, IID1275, X. maltophilia IID 1275, read-out: MIC
[7] = Klebsiella pneumoniae, TYPE1, K. pneumoniae TYPE 1, read-out: MIC
[8] = Pseudomonas aeruginosa, 32104, Ps. aeruginosa 32104, read-out: MIC
[9] = Proteus vulgaris, read-out: MIC
[10] = Enterococcus faecalis, ATCC19433, E. faecalis ATCC 19433, read-out: MIC
[11] = Shigella flexneri, 2A5503, S. flexneri 2A 5503, read-out: MIC
[12] = Staphylococcus aureus, 870307, S. aureus 870307, read-out: MIC
[13] = Escherichia coli, read-out: MIC

SMILES | MIC (Ps. aeruginosa 32121; Ps. aeruginosa 32121) [µg/mL] | MIC (S. epidermidis 56500) | MIC (Str. pneumoniae J24; Str. pneumoniae J24) | MIC (Pr. Vulgaris O8601) [µg/mL] | MIC (Ser. marcescens 10100; Ser. marcescens 10100) [µg/mL] | MIC (S. aureus FDA 209P) | MIC (Str. pyrogenes G-36) | MIC (E. faecalis ATCC 19433; E. faecalis ATCC 19433) [µg/mL] | MIC (S. flexneri 2A 5503; S. flexneri 2A 5503) | MIC (S. aureus 870307; S. aureus 870307) | MIC (E. coli NIHJ) | MIC (X. maltophilia IID 1275; X. maltophilia IID 1275) [µg/mL] | MIC (Ps. aeruginosa 32121; [1]) [µg/mL] | MIC (S. epidermidis 56500; [2]) [µg/mL] | MIC (Str. pneumoniae J24; [3]) [µg/mL] | MIC (Ser. marcescens 10100; [4]) [µg/mL] | MIC (S. aureus FDA 209P; [5]) [µg/mL] | MIC (X. maltophilia IID 1275; [6]) [µg/mL] | MIC (K. pneumoniae TYPE 1; [7]) [µg/mL] | MIC (Ps. aeruginosa 32104; [8]) [µg/mL] | other results
Nc1c(F)c(N2CC[C@@H](C(N)c3ccc(F)cc3F)C2)c(F)c2c1c(=O)c(C(=O)O)cn2[C@@H]1C[C@@H]1F (stereo partly drawn) [Example 10, 5-Amino-7-[3-(R)-(1Amino-1-(2,4-Difluoro) Phenylmethyl)-1-Pyrrolidinyl]-6,8-Difluoro-1-[2-(S)-Fluoro-1-(R)-Cyclopropyl]-1,4-Dihydro-4-Oxoquinoline-3-Carboxylic Acid] | 0.1 (≈ 0.197 µM) | ≦0.003 μg/ml | ≦0.003 μg/ml | 0.1 (≈ 0.197 µM) | 0.1 (≈ 0.197 µM) | ≦0.003 μg/ml | ≦0.003 μg/ml | 0.025 (≈ 0.0492 µM) | ≦0.003 μg/ml | 0.006 µg/mL (≈ 0.0118 µM) | ≦0.003 μg/ml | 0.05 (≈ 0.0983 µM) | – | – | – | – | – | – | – | – | MIC (K. pneumoniae TYPE 1; K. pneumoniae TYPE 1): 0.013 µg/mL (≈ 0.0256 µM); MIC (Ps. aeruginosa 32104; Ps. aeruginosa 32104): 0.2 µg/mL (≈ 0.393 µM)
Nc1c(F)c(N2CC[C@@H](C(N)c3ccco3)C2)c(F)c2c1c(=O)c(C(=O)O)cn2[C@@H]1C[C@@H]1F (stereo partly drawn) [Example 11, 5-Amino-7-{3-(R)-[1-amino-1-(2-furyl)methyl]-1-pyrrolidinyl}-6,8-difluoro-1-[2-(S)-fluoro-1-(R)-cyclopropyl]-1,4-dihydro-4-oxoquinoline-3-carboxylic acid] | – | – | – | 0.05 (≈ 0.108 µM) | – | – | 0.013 µg/mL (≈ 0.0281 µM) | 0.025 (≈ 0.0541 µM) | ≦0.003 μg/ml | 0.025 µg/mL (≈ 0.0541 µM) | ≦0.003 μg/ml | – | 0.05 (≈ 0.108 µM) | ≤ 0.003 | 0.006 (≈ 0.013 µM) | 0.05 (≈ 0.108 µM) | ≤ 0.003 | 0.05 (≈ 0.108 µM) | 0.025 (≈ 0.0541 µM) | 0.2 (≈ 0.432 µM) | –
COc1c(N2CC[C@@H](C(N)c3ccccc3)C2)ccc2c(=O)c(C(=O)O)cn([C@@H]3C[C@@H]3F)c12 (stereo partly drawn) [Example 6, 7-[3-(R)-(1-Amino-1-Phenylmethyl)-1-Pyrrolidinyl]-1-[2-(S)-Fluoro-1-(R)-Cyclopropyl]-1,4-Dihydro-8-Methoxy-4-Oxoquinoline-3-Carboxylic Acid] | – | – | – | – | – | – | – | – | – | – | – | – | 0.1 (≈ 0.221 µM) | 0.006 (≈ 0.0133 µM) | ≤ 0.003 | 0.1 (≈ 0.221 µM) | ≤ 0.003 | 0.1 (≈ 0.221 µM) | 0.05 (≈ 0.111 µM) | 0.2 (≈ 0.443 µM) | MIC (Pr. Vulgaris O8601; [9]): 0.1 µg/mL (≈ 0.221 µM); MIC (Str. pyrogenes G-36; read-out: MIC): ≤ 0.003 µg/mL; MIC (E. faecalis ATCC 19433; [10]): 0.025 µg/mL (≈ 0.0554 µM); MIC (S. flexneri 2A 5503; [11]): 0.013 µg/mL (≈ 0.0288 µM); MIC (S. aureus 870307; [12]): 0.013 µg/mL (≈ 0.0288 µM); MIC (E. coli NIHJ; [13]): 0.006 µg/mL (≈ 0.0133 µM)
Nc1c(F)c(N2CC[C@@H](C(N)c3cccnc3)C2)c(F)c2c1c(=O)c(C(=O)O)cn2[C@@H]1C[C@@H]1F (stereo partly drawn) [Example 19, 5-Amino-7-(3-(R)-[1-amino-1-(3-pyridyl)methyl]-1-pyrrolidinyl]-6,8-difluoro-1-[(1R, 2S)-2-fluorocyclopropyl]-1,4-dihydro-4-oxoquinoline-3-carboxylic acid] | – | – | – | – | – | – | – | – | – | – | – | – | 0.05 (≈ 0.106 µM) | ≤ 0.003 | ≤ 0.003 | 0.1 (≈ 0.211 µM) | ≤ 0.003 | 0.1 (≈ 0.211 µM) | 0.025 (≈ 0.0528 µM) | 0.2 (≈ 0.422 µM) | MIC (Pr. Vulgaris O8601; [9]): 0.025 µg/mL (≈ 0.0528 µM); MIC (Str. pyrogenes G-36; read-out: MIC): ≤ 0.003 µg/mL; MIC (E. faecalis ATCC 19433; [10]): 0.025 µg/mL (≈ 0.0528 µM); MIC (S. flexneri 2A 5503; [11]): ≤ 0.003 µg/mL; MIC (S. aureus 870307; [12]): 0.025 µg/mL (≈ 0.0528 µM); MIC (E. coli NIHJ; [13]): ≤ 0.003 µg/mL
C[C@H]1COc2c(N3CC[C@@H](C(N)c4ccccc4)C3)c(F)cc3c(=O)c(C(=O)O)cn1c23 (stereo partly drawn) [Example 4, 10-[3-(R)-(1-Amino-1-Phenylmethyl)-1-Pyrrolidinyl]-9-Fluoro-2,3-Dihydro-3-(S)-Methyl-7-Oxo-7H-Pyrido [1,2,3,-de] [1,4] Benzoxazine-6-Carboxylic Acid] | 0.05 (≈ 0.114 µM) | ≦0.003 μg/ml | ≦0.003 μg/ml | 0.013 (≈ 0.0297 µM) | 0.025 (≈ 0.0571 µM) | ≦0.003 μg/ml | ≦0.003 μg/ml | 0.006 (≈ 0.0137 µM) | ≦0.003 μg/ml | ≦0.003 μg/ml | ≦0.003 μg/ml | 0.05 (≈ 0.114 µM) | – | – | – | – | – | – | – | – | MIC (K. pneumoniae TYPE 1; K. pneumoniae TYPE 1): 0.025 µg/mL (≈ 0.0571 µM); MIC (Ps. aeruginosa 32104; Ps. aeruginosa 32104): 0.1 µg/mL (≈ 0.229 µM)
